# In ChEMBL document CHEMBL1127733, “Aspartyl alpha-((1-phenyl-3-(trifluoromethyl)-pyrazol-5-yl)oxy)methyl ketones as interleukin-1 beta converting enzyme inhibitors. Significance of the P1 and P3 amido nitrogens for enzyme-peptide inhibitor binding” (J Med Chem, 1994):
# Target: T1, Caspase-1 (Homo sapiens) (UniProt P29466)
# T1 sequence (whole entry): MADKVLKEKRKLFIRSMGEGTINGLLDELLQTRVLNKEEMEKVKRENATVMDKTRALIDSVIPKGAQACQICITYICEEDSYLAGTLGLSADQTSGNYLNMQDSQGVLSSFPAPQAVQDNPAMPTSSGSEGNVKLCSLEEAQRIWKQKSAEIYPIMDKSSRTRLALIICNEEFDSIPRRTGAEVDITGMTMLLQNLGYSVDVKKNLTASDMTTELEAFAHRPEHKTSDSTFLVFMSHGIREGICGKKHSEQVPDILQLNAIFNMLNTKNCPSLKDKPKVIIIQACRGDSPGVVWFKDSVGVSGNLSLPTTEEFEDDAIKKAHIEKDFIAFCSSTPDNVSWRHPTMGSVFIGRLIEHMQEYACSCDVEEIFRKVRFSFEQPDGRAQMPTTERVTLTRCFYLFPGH
# Experiment: Inhibition constant against interleukin-1-beta converting enzyme
row,SMILES,K obs / 1 [M⁻¹ s⁻¹]
1,CC(C)[C@H](NC(=O)OCc1ccccc1)C(=O)N1CC[C@H]1C(=O)N[C@@H](CC(=O)O)C(=O)COc1cc(C(F)(F)F)nn1-c1ccccc1,46200
2,O=C(O)C[C@H](NC(=O)OCc1ccccc1)C(=O)COc1cc(C(F)(F)F)nn1-c1ccccc1,11000
3,CC(C)[C@H](NC(=O)OCc1ccccc1)C(=O)N[C@@H](C)C(=O)N(C)[C@@H](CC(=O)O)C(=O)COc1cc(C(F)(F)F)nn1-c1ccccc1,< 300
4,CC(C)[C@@H](C(=O)N[C@@H](C)C(=O)N[C@@H](CC(=O)O)C(=O)COc1cc(C(F)(F)F)nn1-c1ccccc1)N(C)C(=O)OCc1ccccc1,8600
5,CC(C)[C@H](NC(=O)OCc1ccccc1)C(=O)N1CCC[C@H]1C(=O)N[C@@H](CC(=O)O)C(=O)COc1cc(C(F)(F)F)nn1-c1ccccc1,116000

# Further lines, results first:
row,K obs / 1 [M⁻¹ s⁻¹],SMILES
1,233000,CC(C)[C@H](NC(=O)OCc1ccccc1)C(=O)N(C)[C@@H](C)C(=O)N[C@@H](CC(=O)O)C(=O)COc1cc(C(F)(F)F)nn1-c1ccccc1
2,20000,CC(C)[C@H](NC(=O)OCc1ccccc1)C(=O)N[C@@H](CC(=O)O)C(=O)COc1cc(C(F)(F)F)nn1-c1ccccc1
